Measurements published in patent publication US10398315B2, “Method of imaging living tissue” (Agency for Science, Technology and Research, priority 2013, dated 2019).
“Also recorded” adds a separate entry of the source.

Experiments:
[1] = MSOT phantom measurement of photoacoustic signal; assay type: physicochemical; conditions: 680-900 nm; for Relative PA Quantum yield (ϕP): gradient of unmixed PA signal vs concentration in phantom, arbitrary ratios; for PA signal / photoacoustic activity in phantoms: phantom, compared among the 5 photosensitizers
Method: In order to verify the PA activity of the photosensitizers under controlled conditions, phantom measurements for all the contrast agents were performed, in the 680-900 nm wavelength range, each at 5 different concentrations.
All phantom and in vivo mouse imaging experiments were performed using a real-time multispectral optacoustic tomographic (MSOT) imaging system; inVision 128 (iThera Medical GmbH, Neuherberg, Germany).
The phantom was made of polyurethane, cylindrical in shape with a diameter of 2 cm, which was specially designed to mimic the shape, size and optical properties of the mouse (iThera Medical GmbH, Neuherberg, Germany). In addition, it had 2 inner cylindrical channels, each with diameter of 3 mm, one for holding the control medium and the other for holding the dissolved contrast agent in the same medium, to measure PA signal compared to the control medium, as shown in FIG. 2A.
Optical excitation was provided by an optical parametric oscillator (OPO) with a tunable near infra-red (NIR) wavelength range from 680 nm to 980 nm, which is in turn pumped by a Q-switched Nd:YAG laser with a pulse duration of 10 ns and repetition rate of 10 Hz. Light was delivered by a fiber bundle divided into 10 output arms to illuminate the sample from multiple angles around the imaging plane.
Photoacoustic (PA) signals were acquired using a 128-element concave transducer array spanning a circular arc of 270°. […] One transverse image slice was acquired from each laser pulse, resulting in a frame-rate of 10 Hz.
During image acquisition, the sample is translated through the transducer array along its axis across the volume ROI, in order to capture the corresponding transverse image slices. Data from multiple transverse slices across the channel portion which contains the probe and control were recorded. Excitation wavelength scan from 680 to 900 nm with an interval of 10 nm for each transverse slice was applied, and the averaged PA signals from 10 frames for each wavelength and position were recorded.
In addition, PA signal for each contrast agent was spectrally unmixed via linear regression. This allowed isolation of the individual contribution of the contrast agent of interest that may be plotted as a function of concentration, which in turn was used to produce a straight line of best fit based on least-squares regression, for each contrast agent.
This gradient was thereby defined by the inventors as a form of relative PA quantum yield (ϕP), a kind of measure of the efficiency of the conversion of light absorption into photoacoustic signal. This is analogous to fluorescence quantum yield (ϕ), which measures efficiency of the conversion of light absorption into fluorescence emission.
The numbers shown are not absolute values, but arbitrary ratios, which reflect the relative PA strength of one compound against that of another.

[2] = Concentration of drug in the blood calculated from pre-clinical in vivo dose from literature; conditions: assuming volume of blood in mice 2 ml
[3] = literature value; cited from earlier work
[4] = literature value; cited from earlier work; remark: listed apart in the source
[5] = UV absorbance measurement 680-900 nm; assay type: physicochemical; conditions: 680 nm to 900 nm, normalized absorbance, compared among the 5 photosensitizers
Method: In order to obtain information about optical absorption properties of the contrast agents, their wavelength-dependent absorption spectra at known concentrations were measured using a spectrophotometer.
In the experiments carried out, wavelength-dependent absorption spectrum of the contrast agents was measured from 680 nm to 900 nm using a spectrophotometer (DU 730, Beckman Coulter), which in turn was used as an input spectrum for multispectral post-processing of photoacoustic signals.
The spectra were normalized to obtain the concentration-independent normalized absorbance (directly proportional to extinction coefficient) as a function of wavelength for each contrast agent (FIG. 1), based on Beer-Lambert law: A(λ)=ln(Io/I)=ε(λ)cl
where A(λ) is the measured wavelength-dependent absorbance, I0 is the incident light intensity, I is the transmitted light intensity, ε(2) is the wavelength-dependent extinction coefficient of the contrast agent, c is the concentration of the contrast agent and l is the path length of the quartz cuvette (1 cm).

[6] = In vivo longitudinal MSOT monitoring of probe biodistribution in mouse xenograft model; conditions: 0.21 mg/kg tail vein; for time of peak accumulation post injection: tumor site and organs
Method: For in vivo imaging, ultrasound gel was applied on the mouse skin surface, and measurements were recorded in temperature-controlled water for good acoustic coupling. An animal holder with a thin polyethylene membrane was used to prevent direct contact between the mouse and the water.
Xenograft mice models were established by injecting subcutaneously into the right flank of mouse, 0.2 mL of cell suspension containing about 5×10^6 to 6×10^6 MCF-7, a human metastatic breast cancer cell line or OSCC, a human oral squamous carcinoma cell line and matrigel (BD biosciences) in 1:1 volume ratio. When the tumor volume reached a palpable size, the mouse was used for in vivo PA imaging.
ZnPc at a dosage of 0.21 mg/kg was injected via a catheter into the tail vein of a subcutaneous tumor bearing mice anaesthetized under isoflurane and the probe biodistribution or uptake was monitored over time in various organs of liver, spleen, kidneys, intestines and tumor using photoacoustic imaging. Before image acquisition, a volume ROI consisting of transverse slices with a step size of 0.3 mm spanning from the liver to the lower abdomen was selected by manual inspection of live MSOT images, and the 6 laser excitation wavelengths of 680, 700, 750, 800, 850 and 900 nm were selected for correspondence with the major turning points in the absorption spectra of ZnPc, oxy-haemoglobin and deoxy-haemoglobin. Multispectral imaging was then performed with 10 signal averages per wavelength per transverse slice, before injection, during injection and 1, 3, 5, and 24 hr post-injection.
Images were reconstructed using a model-based approach as discussed in Rosenthal, A. et al. (Rosenthal, A. et al., Fast semi-analytical model-based acoustic inversion for quantitative optoacoustic tomography. IEEE Trans. Med. Imag. 29, 1275-1285 (2010)) for offline analysis. After image reconstruction, spectral unmixing was performed to resolve individual components from different chromophores in the system. For each pixel in the image, the method fits the total measured optoacoustic spectrum to the known absorption spectra of the individual chromophores, based on least-squares linear regression.
A volume ROI consisting of transverse slices spanning from the liver to the lower abdomen was scanned, and maximum intensity projections (MIPs) based on these slices were constructed for image analysis.
For the later time points, this background subtraction was not possible, as the animal was removed and placed in the MSOT system repeatedly, with repositioning, in order to avoid overdosage of isoflurane for the entire 24-hour duration.

| Molecule | Relative PA Quantum yield (ϕP) [1] | Concentration of drug in the blood [2] [µM] | tmax, time of peak concentrations ([6]; MIPs t=10 to 60 mins) [h] | time to clearance ([6]; MSOT signal) [h] | time of peak tumor-to-muscle ratio of MSOT signal ([6]; n=4) [h] | time to localization at the tumor post injection ([6]; tumor bearing mice) [min] | time of peak accumulation post injection [6] [h] | time of peak accumulation post injection ([6]; listed as zinc phthalocyanine) | Fluorescence Quantum Yield (ϕF) [3] | Singlet Oxygen Quantum Yield (ϕΔ) [4] | Relative PA Quantum yield (ϕP) ([1]; listed as zinc pthalocyanine) | PA signal / photoacoustic activity in phantoms [1] | PA signal / photoacoustic activity in phantoms ([1]; listed as zinc phthalocyanine) | PA signal / photoacoustic activity in phantoms ([1]; listed as zinc pthalocyanine) | overall absorbance in the NIR region [5] | organ biodistribution of MSOT signal ([6]; liver, spleen, kidneys, intestines, tumor) |
| --- | --- | --- | --- | --- | --- | --- | --- | --- | --- | --- | --- | --- | --- | --- | --- | --- |
| CN(C)c1ccc2nc3ccc(=[N+](C)C)cc-3sc2c1 [MB, methylene blue] | 0.029 | 1337.00 |  |  |  |  |  |  | 0.02 [23] | 0.55 [23] |  |  |  |  |  |  |
| chlorin e6 [Ce6] | 0.036 | 41.90 |  |  |  |  |  |  | 0.19 [23] | 0.65 [23] |  |  |  |  |  |  |

The next lines start with results.

| Relative PA Quantum yield (ϕP) [1] | Concentration of drug in the blood [2] [µM] | tmax, time of peak concentrations ([6]; MIPs t=10 to 60 mins) [h] | time to clearance ([6]; MSOT signal) [h] | time of peak tumor-to-muscle ratio of MSOT signal ([6]; n=4) [h] | time to localization at the tumor post injection ([6]; tumor bearing mice) [min] | time of peak accumulation post injection [6] [h] | time of peak accumulation post injection ([6]; listed as zinc phthalocyanine) | Molecule | Fluorescence Quantum Yield (ϕF) [3] | Singlet Oxygen Quantum Yield (ϕΔ) [4] | Relative PA Quantum yield (ϕP) ([1]; listed as zinc pthalocyanine) | PA signal / photoacoustic activity in phantoms [1] | PA signal / photoacoustic activity in phantoms ([1]; listed as zinc phthalocyanine) | PA signal / photoacoustic activity in phantoms ([1]; listed as zinc pthalocyanine) | overall absorbance in the NIR region [5] | organ biodistribution of MSOT signal ([6]; liver, spleen, kidneys, intestines, tumor) |
| --- | --- | --- | --- | --- | --- | --- | --- | --- | --- | --- | --- | --- | --- | --- | --- | --- |
|  | 88.88 |  |  |  |  |  |  | C=CC1=C(C)c2cc3[nH]c(cc4nc(cc5[nH]c(cc1n2)c(C)c5CCC(=O)O)C(CCC(=O)O)=C4C)c(C)c3C=C [PpIX, protoporphyrin IX] |  |  |  |  |  |  |  |  |
| 0.18 | 181.40 |  |  |  |  |  |  | O=C1C(=C2C(O)=CC(=[N+](Cc3ccccc3)Cc3ccccc3)C=C2O)C([O-])=C1c1c(O)cc(N(Cc2ccccc2)Cc2ccccc2)cc1O [Sq, 2,4-bis[4-(N,N-dibenzylamino)-2,6-dihydroxyphenyl]squaraine] | 0.037 [27] | 0.61-0.74 [28] |  |  |  |  |  |  |
|  | 3.63 | 1 | ≤ 24 | 1 | ≤ 10 | 1 | around 1 hour | [Zn+2].c1ccc2c(c1)-c1nc-2nc2[n-]c(nc3nc([n-]c4nc(n1)-c1ccccc1-4)-c1ccccc1-3)c1ccccc21 [ZnPc, zinc phthalocyanine] | 0.06 [23] | 0.62 [23] | highest relative photoacoustic quantum yield | strongest PA signal in phantoms | highest photoacoustic activity | strongest photoacoustic signal | highest overall absorbance | strong in vivo MSOT signal of ZnPc was detected in the reticuloendothelial system (liver, spleen), intestines and tumor site within the first hour after injection; also recorded: high concentrations were found in the liver and intestines up to the 3-hour time point, whereas renal signal was much weaker in comparison |
